Source: the NIST ThermoML archive (doi:10.1016/j.tca.2014.11.008)
± gives the expanded uncertainty stated by the source.

Conditions: Crystal; visual observation

- Normal melting temperature: 138.70 ± 1.3 °C
SMILES: O=C(O)c1ccsc1 [β-thiophenecarboxylic acid]
